Experimental data from ChEMBL document CHEMBL1151450, “Differential activities of newer antifungal agents against Candida albicans and Candida parapsilosis biofilms” (2008).
In brackets after ≈: the same amount, converted by molar mass. Activity calls are given as the source filed them. The rule behind the calls is not given here. *1 amine or outer side, *2 acyl side, *3 side chain or, on linkers, in order; H or OH if unused. Where a SMILES comes first, the peptide text is derived from it. Bridges are numbered along the chain shown (N, C = ends). [ ]: non-standard residue; d: D form. The star is where a group is joined. pTerphenylCO(4''-OnC5H11) = CCCCCOc1ccc(-c2ccc(-c3ccc(C(=O)*)cc3)cc2)cc1; Orn(4R-OH,5R-OH) = O=C([C@H](C[C@@H](O)[C@@H](O)N[*:3])N[*:1])[*:2]; hTyr(3S-OH,4S-OH) = N[C@H](C(=O)O)[C@H](O)[C@@H](O)c1ccc(O)cc1; Pro(3S-OH,4S-Me) = C[C@H]1CN[C@H](C(=O)O)[C@H]1O; Hyp = O=C(O)[C@@H]1C[C@@H](O)CN1

What was measured:
Candida parapsilosis [1] = assay: Antifungal activity against Candida parapsilosis PA/71 grown as planktonic cell assessed as minimum drug level required to decrease turbidity by 50% after 24 hrs by CLSI M27-A2 method; type: functional; conditions: Lodderomyces parapsilosis, PA/71, 24 h
Candida albicans [2] = assay: Antifungal activity against Candida albicans M61 grown as biofilm assessed as maximum inhibition of biofilm metabolic activity at 2 mg/liter after 24 hrs by XTT assay relative to control; type: functional; conditions: M61, 24 h
Candida albicans [3] = assay: Antifungal activity against Candida albicans GDH2346 grown as biofilm assessed as maximum inhibition of biofilm metabolic activity at 2 mg/liter after 24 hrs by XTT assay relative to control; type: functional; conditions: GDH2346, 24 h
Candida albicans [4] = assay: Antifungal activity against Candida albicans M61 grown as planktonic cell assessed as minimum drug level required to decrease turbidity by 50% after 24 hrs by CLSI M27-A2 method; type: functional; conditions: M61, 24 h
Candida parapsilosis [5] = assay: Antifungal activity against Candida parapsilosis PA/71 grown as biofilm >2 mg/liter after 24 hrs by XTT assay; type: functional, organism-based
Candida albicans [6] = assay: Antifungal activity against Candida albicans GDH2346 grown as biofilm >2 mg/liter after 24 hrs by XTT assay; type: functional, organism-based
Candida albicans [7] = assay: Antifungal activity against Candida albicans M61 grown as biofilm at >2 mg/liter after 24 hrs by XTT assay; type: functional, organism-based
Candida albicans [8] = assay: Antifungal activity against Candida albicans M61 grown as biofilm assessed as 50% reduction in metabolic activity of biofilm at 0.06 mg/liter after 24 hrs by XTT assay; type: functional, organism-based
Candida parapsilosis [9] = assay: Antifungal activity against Candida parapsilosis PA/71 grown as biofilm assessed as 50% reduction in metabolic activity of biofilm after 24 hrs by XTT assay; type: functional; conditions: Lodderomyces parapsilosis, PA/71, 24 h
Candida albicans [10] = assay: Antifungal activity against Candida albicans GDH2346 grown as planktonic cell assessed as minimum drug level required to decrease turbidity by 50% after 24 hrs by CLSI M27-A2 method; type: functional; conditions: GDH2346, 24 h
Candida albicans [11] = assay: Antifungal activity against Candida albicans GDH2346 grown as biofilm assessed as 50% reduction in metabolic activity of biofilm at 0.03 mg/liter after 24 hrs by XTT assay; type: functional, organism-based
Candida parapsilosis [12] = assay: Antifungal activity against Candida parapsilosis PA/71 grown as biofilm assessed as 50% reduction in metabolic activity of biofilm at 64 mg/liter after 24 hrs by XTT assay; type: functional, organism-based
Candida albicans [13] = assay: Antifungal activity against Candida albicans M61 grown as biofilm assessed as 50% reduction in metabolic activity of biofilm at 64 mg/liter after 24 hrs by XTT assay; type: functional, organism-based
Candida albicans [14] = assay: Antifungal activity against Candida albicans GDH2346 grown as biofilm assessed as 50% reduction in metabolic activity of biofilm at 64 mg/liter after 24 hrs by XTT assay; type: functional, organism-based
Candida albicans [15] = assay: Antifungal activity against Candida albicans M61 grown as biofilm assessed as maximum inhibition of biofilm metabolic activity at 0.5 mg/liter after 24 hrs by XTT assay relative to control; type: functional; conditions: M61, 24 h
Candida albicans [16] = assay: Antifungal activity against Candida albicans GDH2346 grown as biofilm assessed as 50% reduction in metabolic activity of biofilm after 24 hrs by XTT assay; type: functional; conditions: GDH2346, 24 h
Candida albicans [17] = assay: Antifungal activity against Candida albicans GDH2346 grown as biofilm assessed as maximum inhibition of biofilm metabolic activity at 8 mg/liter after 24 hrs by XTT assay relative to control; type: functional; conditions: GDH2346, 24 h
Candida albicans [18] = assay: Antifungal activity against Candida albicans M61 grown as biofilm assessed as 50% reduction in metabolic activity of biofilm after 24 hrs by XTT assay; type: functional; conditions: M61, 24 h
Candida albicans [19] = assay: Antifungal activity against Candida albicans GDH2346 grown as biofilm assessed as 50% reduction in metabolic activity of biofilm at 256 mg/liter after 24 hrs by XTT assay; type: functional, organism-based
Candida parapsilosis [20] = assay: Antifungal activity against Candida parapsilosis PA/71 grown as biofilm assessed as 50% reduction in metabolic activity of biofilm at 256 mg/liter after 24 hrs by XTT assay; type: functional, organism-based
Candida albicans [21] = assay: Antifungal activity against Candida albicans M61 grown as biofilm assessed as 50% reduction in metabolic activity of biofilm at 256 mg/liter after 24 hrs by XTT assay; type: functional, organism-based

Structure (SMILES): CC[C@H](C)C[C@H](C)CCCCCCCCC(=O)N[C@H]1C[C@@H](O)[C@@H](NCCN)NC(=O)[C@@H]2[C@@H](O)CCN2C(=O)[C@H]([C@H](O)CCN)NC(=O)[C@H]([C@H](O)[C@@H](O)c2ccc(O)cc2)NC(=O)[C@@H]2C[C@@H](O)CN2C(=O)[C@H]([C@@H](C)O)NC1=O [CASPOFUNGIN]
- MIC (Candida parapsilosis [1]): 0.06 µg/mL (≈ 0.0549 µM)
- inhibition at 2 µg/mL (Candida albicans [2]): 30%
- inhibition at 2 µg/mL (Candida albicans [3]): 30%
- MIC (Candida albicans [4]): 0.06 µg/mL (≈ 0.0549 µM)
- Activity (Candida parapsilosis [5]): Active
- Activity (Candida albicans [6]): Active
- Activity (Candida albicans [7]): Active
- Activity (Candida albicans [8]): Active
- MIC (Candida parapsilosis [9]): 1 µg/mL (≈ 0.915 µM)
- MIC (Candida albicans [10]): 0.03 µg/mL (≈ 0.0274 µM)
- Activity (Candida albicans [11]): Active

Structure (SMILES): CC[C@@H]([C@H](C)O)n1ncn(-c2ccc(N3CCN(c4ccc(OC[C@@H]5CO[C@@](Cn6cncn6)(c6ccc(F)cc6F)C5)cc4)CC3)cc2)c1=O [POSACONAZOLE]
- Activity (Candida parapsilosis [12]): inactive
- MIC (Candida parapsilosis [1]): 0.01 µg/mL (≈ 0.0143 µM)
- MIC (Candida albicans [4]): ≤ 0.001 µg/mL
- MIC (Candida parapsilosis [9]): > 256 µg/mL
- Activity (Candida albicans [13]): inactive
- Activity (Candida albicans [14]): inactive
- MIC (Candida albicans [10]): ≤ 0.001 µg/mL

Structure (SMILES): CCCCCOc1ccc(-c2ccc(-c3ccc(C(=O)N[C@H]4C[C@@H](O)[C@@H](O)NC(=O)[C@@H]5[C@@H](O)[C@@H](C)CN5C(=O)[C@H]([C@@H](C)O)NC(=O)[C@H]([C@H](O)[C@@H](O)c5ccc(O)cc5)NC(=O)[C@@H]5C[C@@H](O)CN5C(=O)[C@H]([C@@H](C)O)NC4=O)cc3)cc2)cc1 [ANIDULAFUNGIN] ({pTerphenylCO(4''-OnC5H11)}-[Orn(4R-OH,5R-OH)]T[Hyp][hTyr(3S-OH,4S-OH)]T[Pro(3S-OH,4S-Me)]; lactam 1-C)
- inhibition at 0.5 µg/mL (Candida albicans [15]): 40%
- MIC (Candida albicans [16]): 0.12 µg/mL (≈ 0.105 µM)
- MIC (Candida parapsilosis [1]): 0.125 µg/mL (≈ 0.11 µM)
- MIC (Candida albicans [4]): 0.003 µg/mL (≈ 0.00263 µM)
- inhibition at 8 µg/mL (Candida albicans [17]): 40%
- MIC (Candida parapsilosis [9]): 2 µg/mL (≈ 1.75 µM)
- MIC (Candida albicans [18]): 0.5 µg/mL (≈ 0.438 µM)
- MIC (Candida albicans [10]): 0.003 µg/mL (≈ 0.00263 µM)

Structure (SMILES): C[C@@H](c1ncncc1F)[C@](O)(Cn1cncn1)c1ccc(F)cc1F [VORICONAZOLE]
- MIC (Candida parapsilosis [1]): 0.03 µg/mL (≈ 0.0859 µM)
- MIC (Candida albicans [4]): 0.01 µg/mL (≈ 0.0286 µM)
- Activity (Candida albicans [19]): inactive
- Activity (Candida parapsilosis [20]): inactive
- Activity (Candida albicans [21]): inactive
- MIC (Candida parapsilosis [9]): 256 µg/mL (≈ 733 µM)
- MIC (Candida albicans [10]): 4 µg/mL (≈ 11.5 µM)
